Legend:
CRBN/DDB1 = CRBN/DDB1 (Homo sapiens (Human), UniProt Q96SW2); assay: IC50 measurements for binding to CRBN/DDB1 (HTRF); conditions: His tagged CRBN+DDB, Cy5-labeled Thalidomide probe, one hour
Procedure: In vitro Assay: IC50 Measurements for binding to CRBN/DDB1 (Table E1)
The binding potency was determined using HTRF assay technology (Perkin Elmer). Compounds were serially diluted in DMSO and 0.2 μL volume was transferred to white 384-well plate. The reaction was conducted in total volume of 20 μL with addition of 2 nM His tagged CRBN+DDB−DLS7+CXU4 (Wuxi, catalogue #RP210521GA) to compounds followed by addition of 60 nM Fluorescent probe Cy5-labeled Thalidomide (Tenova Pharma, catalogue #T52461), and 0.4 nM of MAb Anti-6HIS Tb cryptate Gold (Cisbio, catalogue #61HI2TLA in the assay buffer (50 mM HEPES pH 7.5, 1 mM TCEP, 0.01% Brij-35, 50 mM NaCl, and 0.1% BSA). After one hour incubation at room temperature, the HTRF signals were read on Envision reader (Perkin Elemer). Data was analyzed using XLfit using four parameters dose response curve to determine IC50s. A: IC50<0.1 μM; B: 0.1 μM<IC50<[…]; C: 0.5 μM<IC50<1 μM; D: 1 μM<IC50<5 μM; E: 5 μM<IC50<10 μM

IKZF2 = IKZF2 (Homo sapiens (Human), UniProt Q96SW2+Q9UKS7); assay: In vitro IKZF2 HiBit Assay (HEK293T Flp-in-HiBiT cells); type: cell-based; conditions: HEK293T Flp-in-HiBiT cells, 6 hrs incubation; for DC50: read-out: IKZF2 HiBit DC50; for Dmax: HEK-293T, read-out: IKZF2 HiBit Dmax (%)
IKZF2, sequence (Q9UKS7 whole entry): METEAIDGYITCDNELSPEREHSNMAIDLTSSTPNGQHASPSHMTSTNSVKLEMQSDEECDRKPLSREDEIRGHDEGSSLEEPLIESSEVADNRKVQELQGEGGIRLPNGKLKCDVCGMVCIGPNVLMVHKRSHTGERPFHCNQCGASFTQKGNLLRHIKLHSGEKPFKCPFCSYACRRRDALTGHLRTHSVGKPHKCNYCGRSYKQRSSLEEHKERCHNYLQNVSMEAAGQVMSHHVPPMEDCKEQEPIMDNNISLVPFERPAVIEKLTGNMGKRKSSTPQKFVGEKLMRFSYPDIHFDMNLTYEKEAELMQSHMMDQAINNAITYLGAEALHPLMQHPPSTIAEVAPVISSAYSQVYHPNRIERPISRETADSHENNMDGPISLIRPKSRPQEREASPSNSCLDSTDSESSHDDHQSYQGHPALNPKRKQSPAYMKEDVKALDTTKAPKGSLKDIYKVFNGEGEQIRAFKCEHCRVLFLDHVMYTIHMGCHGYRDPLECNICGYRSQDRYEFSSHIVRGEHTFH
IKZF2, sequence (Q96SW2 whole entry): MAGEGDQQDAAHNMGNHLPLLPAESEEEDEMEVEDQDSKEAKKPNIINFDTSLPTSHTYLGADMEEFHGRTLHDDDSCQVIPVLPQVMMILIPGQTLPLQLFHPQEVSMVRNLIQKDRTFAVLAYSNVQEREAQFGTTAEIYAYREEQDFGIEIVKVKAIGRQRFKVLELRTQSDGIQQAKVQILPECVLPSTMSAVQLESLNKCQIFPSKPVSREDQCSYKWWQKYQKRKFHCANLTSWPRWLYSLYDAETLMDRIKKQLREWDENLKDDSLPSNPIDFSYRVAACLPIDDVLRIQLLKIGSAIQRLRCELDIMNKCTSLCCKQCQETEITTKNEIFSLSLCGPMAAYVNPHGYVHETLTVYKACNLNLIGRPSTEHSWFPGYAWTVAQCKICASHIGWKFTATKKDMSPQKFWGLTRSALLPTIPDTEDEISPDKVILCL
IKZF2, sequence (Q16531 2-1140 partner): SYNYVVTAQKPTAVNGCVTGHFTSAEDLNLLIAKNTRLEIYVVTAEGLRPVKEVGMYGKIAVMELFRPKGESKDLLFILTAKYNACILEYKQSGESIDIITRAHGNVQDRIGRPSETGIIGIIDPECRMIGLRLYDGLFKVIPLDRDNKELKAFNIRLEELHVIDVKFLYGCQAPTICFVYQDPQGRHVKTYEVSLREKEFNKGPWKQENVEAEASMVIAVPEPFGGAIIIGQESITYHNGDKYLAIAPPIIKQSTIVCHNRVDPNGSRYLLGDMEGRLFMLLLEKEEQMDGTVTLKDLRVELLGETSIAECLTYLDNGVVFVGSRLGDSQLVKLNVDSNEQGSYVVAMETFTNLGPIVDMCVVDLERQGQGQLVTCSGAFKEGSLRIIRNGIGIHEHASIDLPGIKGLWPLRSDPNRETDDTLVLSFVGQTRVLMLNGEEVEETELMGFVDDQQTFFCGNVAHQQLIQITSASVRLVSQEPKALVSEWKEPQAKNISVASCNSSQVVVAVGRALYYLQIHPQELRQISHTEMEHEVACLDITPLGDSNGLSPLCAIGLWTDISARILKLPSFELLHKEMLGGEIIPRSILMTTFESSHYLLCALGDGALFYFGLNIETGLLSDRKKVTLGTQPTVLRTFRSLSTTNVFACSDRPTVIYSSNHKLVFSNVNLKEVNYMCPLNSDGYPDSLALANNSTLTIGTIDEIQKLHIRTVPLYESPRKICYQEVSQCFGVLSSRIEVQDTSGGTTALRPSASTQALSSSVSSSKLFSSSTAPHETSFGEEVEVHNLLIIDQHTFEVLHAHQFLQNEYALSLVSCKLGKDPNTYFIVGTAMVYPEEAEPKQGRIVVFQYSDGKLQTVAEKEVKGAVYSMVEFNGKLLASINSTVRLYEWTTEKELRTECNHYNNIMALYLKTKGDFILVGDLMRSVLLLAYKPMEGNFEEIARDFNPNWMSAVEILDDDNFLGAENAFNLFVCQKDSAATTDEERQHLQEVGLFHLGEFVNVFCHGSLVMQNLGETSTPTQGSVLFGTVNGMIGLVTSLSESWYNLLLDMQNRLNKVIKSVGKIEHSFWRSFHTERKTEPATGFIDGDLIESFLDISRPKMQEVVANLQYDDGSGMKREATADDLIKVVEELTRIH
Method in brief: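 Remaining tagged Helios was read as lytic HiBiT/LgBiT luminescence normalized to DMSO, yielding binned DC50 and Dmax values. Treatment ran 6 h, with compounds at 11 three-fold doses diluted from 1 mM and 0.1% final DMSO. The cells were HEK293T Flp-in with CRISPR knock-in of HiBiT at the IKZF2 N-terminus.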

IKZF1 = IKZF1 (Homo sapiens (Human), UniProt Q13422+Q96SW2); assay: In vitro IKZF1 HiBit Assay (HEK293T Flp-in-HiBiT-IKZF1 stable cell line); type: cell-based; conditions: HEK293T Flp-in-HiBiT-IKZF1 stable cell line, 6 hrs incubation; for DC50: read-out: IKZF1 HiBit DC50; for Dmax: HEK-293T, read-out: IKZF1 HiBit Dmax (%)
IKZF1, sequence (Q13422 whole entry): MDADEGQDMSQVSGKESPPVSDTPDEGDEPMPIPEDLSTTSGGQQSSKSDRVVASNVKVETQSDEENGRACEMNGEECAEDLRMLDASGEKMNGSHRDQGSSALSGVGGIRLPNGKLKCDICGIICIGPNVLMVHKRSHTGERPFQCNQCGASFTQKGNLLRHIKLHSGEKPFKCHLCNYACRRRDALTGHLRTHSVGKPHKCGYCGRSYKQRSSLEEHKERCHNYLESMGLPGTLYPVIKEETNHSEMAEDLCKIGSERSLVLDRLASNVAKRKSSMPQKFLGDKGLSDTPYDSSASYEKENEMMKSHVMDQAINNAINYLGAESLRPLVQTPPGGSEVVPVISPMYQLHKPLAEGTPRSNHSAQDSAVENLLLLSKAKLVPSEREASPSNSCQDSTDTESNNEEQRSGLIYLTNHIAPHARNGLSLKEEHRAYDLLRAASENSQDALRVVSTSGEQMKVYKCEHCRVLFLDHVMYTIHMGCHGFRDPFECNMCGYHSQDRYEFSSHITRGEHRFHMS
IKZF1, sequence (Q96SW2 whole entry): as the sequence (Q96SW2 whole entry) above
IKZF1, sequence (Q16531 2-1140 partner): as the sequence (Q16531 2-1140 partner) above
Method in brief: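 Degradation was measured as loss of luminescence from the HiBiT-IKZF1 tag after 6 h compound treatment, with 0.1% final DMSO, in stable HEK293T Flp-in cells. Values were normalized to DMSO, giving the 50% degradation concentration and the maximal degradation range.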

CRBN/DDB1, sequence (Q96SW2 whole entry, species assumed): as the sequence (Q96SW2 whole entry) above
CRBN/DDB1, sequence (Q16531 whole entry partner, species assumed): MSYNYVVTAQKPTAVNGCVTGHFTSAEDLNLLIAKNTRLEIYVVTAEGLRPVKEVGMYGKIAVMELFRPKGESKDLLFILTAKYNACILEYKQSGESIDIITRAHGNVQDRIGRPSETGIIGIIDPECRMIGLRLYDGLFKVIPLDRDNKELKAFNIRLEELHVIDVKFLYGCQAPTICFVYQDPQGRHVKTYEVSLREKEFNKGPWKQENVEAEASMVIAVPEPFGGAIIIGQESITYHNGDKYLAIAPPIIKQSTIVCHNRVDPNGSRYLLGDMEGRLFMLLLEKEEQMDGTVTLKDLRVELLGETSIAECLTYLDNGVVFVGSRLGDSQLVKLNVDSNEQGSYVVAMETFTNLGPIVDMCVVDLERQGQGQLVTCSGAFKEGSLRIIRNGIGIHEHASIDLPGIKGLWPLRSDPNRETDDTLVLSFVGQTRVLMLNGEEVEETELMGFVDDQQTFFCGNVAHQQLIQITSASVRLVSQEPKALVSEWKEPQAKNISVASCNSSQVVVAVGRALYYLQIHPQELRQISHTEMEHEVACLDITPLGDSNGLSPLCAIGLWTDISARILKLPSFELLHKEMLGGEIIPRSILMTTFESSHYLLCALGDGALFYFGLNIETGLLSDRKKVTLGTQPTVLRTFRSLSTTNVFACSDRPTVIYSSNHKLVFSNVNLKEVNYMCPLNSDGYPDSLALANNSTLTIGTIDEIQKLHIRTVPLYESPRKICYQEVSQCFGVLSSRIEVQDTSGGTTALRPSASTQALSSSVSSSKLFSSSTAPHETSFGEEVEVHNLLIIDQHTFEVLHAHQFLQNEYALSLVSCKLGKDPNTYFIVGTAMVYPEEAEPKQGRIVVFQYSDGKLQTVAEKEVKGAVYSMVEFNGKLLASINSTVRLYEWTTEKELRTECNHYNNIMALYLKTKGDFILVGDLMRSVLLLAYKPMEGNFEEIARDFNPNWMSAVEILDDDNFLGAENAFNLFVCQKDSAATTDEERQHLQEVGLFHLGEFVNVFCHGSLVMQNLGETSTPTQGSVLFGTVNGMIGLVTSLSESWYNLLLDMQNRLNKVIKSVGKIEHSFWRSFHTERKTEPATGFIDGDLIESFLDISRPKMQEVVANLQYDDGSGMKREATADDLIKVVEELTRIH

## Cn1ccc2c(CN3CCC4(CC3)CC4)cc(-c3ccc4c(c3)CN(C3CCC(=O)NC3=O)C4=O)nc21 (stereo not shown) [Example 64, 3-(5-(4-((6-azaspiro[2.5]octan-6-yl)methyl)-1-methyl-1H-pyrrolo[2,3-b]pyridin-6-yl)-1-oxoisoindolin-2-yl) piperidine-2,6-dione]
CRBN/DDB1
  IC50: 100 to 500 nM
IKZF2
  DC50: < 1 nM
  Dmax: > 80%
IKZF1
  DC50: > 10000 nM
  Dmax: 20 to 40%

## Cn1ccc2c(CN3CCc4ccccc4C3)cc(-c3ccc4c(c3)CN(C3CCC(=O)NC3=O)C4=O)nc21 (stereo not shown) [Example 65, 3-(5-(4-((3,4-dihydroisoquinolin-2 (1H)-yl)methyl)-1-methyl-1H-pyrrolo[2,3-b]pyridin-6-yl)-1-oxoisoindolin-2-yl) piperidine-2,6-dione]
CRBN/DDB1
  IC50: 100 to 500 nM
IKZF2
  DC50: 1 to 10 nM
  Dmax: > 80%
IKZF1
  DC50: > 10000 nM
  Dmax: 20 to 40%

## Cn1ccc2c(CN3CC4CC4C3)cc(-c3ccc4c(c3)CN(C3CCC(=O)NC3=O)C4=O)nc21 (stereo not shown) [Example 66, 3-(5-(4-((3-azabicyclo[3.1.0]hexan-3-yl)methyl)-1-methyl-1H-pyrrolo[2,3-b]pyridin-6-yl)-1-oxoisoindolin-2-yl) piperidine-2,6-dione]
CRBN/DDB1
  IC50: 100 to 500 nM
IKZF2
  DC50: < 1 nM
  Dmax: > 80%
IKZF1
  DC50: > 10000 nM
  Dmax: 20 to 40%

## Cn1ccc2c(CN3Cc4ccccc4C3)cc(-c3ccc4c(c3)CN(C3CCC(=O)NC3=O)C4=O)nc21 (stereo not shown) [Example 67, 3-(5-(4-(isoindolin-2-ylmethyl)-1-methyl-1H-pyrrolo[2,3-b]pyridin-6-yl)-1-oxoisoindolin-2-yl) piperidine-2,6-dione]
CRBN/DDB1
  IC50: 500 to 1000 nM
IKZF2
  DC50: 1 to 10 nM
  Dmax: 60 to 80%
IKZF1
  DC50: > 10000 nM
  Dmax: 20 to 40%

## Cn1ccc2c(CN3CCS(=O)(=O)CC3)cc(-c3ccc4c(c3)CN(C3CCC(=O)NC3=O)C4=O)nc21 (stereo not shown) [Example 68, 3-(5-(4-((1,1-dioxidothiomorpholino)methyl)-1-methyl-1H-pyrrolo[2,3-b]pyridin-6-yl)-1-oxoisoindolin-2-yl) piperidine-2,6-dione]
CRBN/DDB1
  IC50: 1000 to 5000 nM
IKZF2
  DC50: 100 to 1000 nM
  Dmax: 20 to 40%
IKZF1
  DC50: > 10000 nM
  Dmax: < 20%

## Cn1ccc2c(CN3CCC4(CCC4)CC3)cc(-c3ccc4c(c3)CN(C3CCC(=O)NC3=O)C4=O)nc21 (stereo not shown) [Example 69, 3-(5-(4-((7-azaspiro[3.5]nonan-7-yl)methyl)-1-methyl-1H-pyrrolo[2,3-b]pyridin-6-yl)-1-oxoisoindolin-2-yl) piperidine-2,6-dione]
CRBN/DDB1
  IC50: 100 to 500 nM
IKZF2
  DC50: < 1 nM
  Dmax: > 80%
IKZF1
  DC50: > 10000 nM
  Dmax: 20 to 40%

## Cn1ccc2c(CN3CC4COCC(C4)C3)cc(-c3ccc4c(c3)CN(C3CCC(=O)NC3=O)C4=O)nc21 (stereo not shown) [Example 70, 3-(5-(4-((3-oxa-7-azabicyclo[3.3.1]nonan-7-yl)methyl)-1-methyl-1H-pyrrolo[2,3-b]pyridin-6-yl)-1-oxoisoindolin-2-yl) piperidine-2,6-dione]
CRBN/DDB1
  IC50: 1000 to 5000 nM
IKZF2
  DC50: 1 to 10 nM
  Dmax: > 80%
IKZF1
  DC50: > 10000 nM
  Dmax: < 20%

## Cn1ccc2c(CN3CCC3c3ccccc3)cc(-c3ccc4c(c3)CN(C3CCC(=O)NC3=O)C4=O)nc21 (stereo not shown) [Example 71, 3-(5-(1-methyl-4-((2-phenylazetidin-1-yl)methyl)-1H-pyrrolo[2,3-b]pyridin-6-yl)-1-oxoisoindolin-2-yl) piperidine-2,6-dione]
CRBN/DDB1
  IC50: 100 to 500 nM
IKZF2
  DC50: 1 to 10 nM
  Dmax: > 80%
IKZF1
  DC50: > 10000 nM
  Dmax: 20 to 40%

## Cn1ccc2c(CN3CC4CCCC4C3)cc(-c3ccc4c(c3)CN(C3CCC(=O)NC3=O)C4=O)nc21 (stereo not shown) [Example 72, 3-(5-(4-((hexahydrocyclopenta[c]pyrrol-2 (1H)-yl)methyl)-1-methyl-1H-pyrrolo[2,3-b]pyridin-6-yl)-1-oxoisoindolin-2-yl) piperidine-2,6-dione]
CRBN/DDB1
  IC50: 100 to 500 nM
IKZF2
  DC50: < 1 nM
  Dmax: > 80%
IKZF1
  DC50: > 10000 nM
  Dmax: 40 to 60%

## Cn1ccc2c(CN3CCC4(CC3)COC4)cc(-c3ccc4c(c3)CN(C3CCC(=O)NC3=O)C4=O)nc21 (stereo not shown) [Example 73, 3-(5-(4-((2-oxa-7-azaspiro[3.5]nonan-7-yl)methyl)-1-methyl-1H-pyrrolo[2,3-b]pyridin-6-yl)-1-oxoisoindolin-2-yl) piperidine-2,6-dione]
CRBN/DDB1
  IC50: 100 to 500 nM
IKZF2
  DC50: 1 to 10 nM
  Dmax: > 80%
IKZF1
  DC50: > 10000 nM
  Dmax: 20 to 40%

## CCn1ccc2c(CN3CCCC3)cc(-c3ccc4c(c3)CN(C3CCC(=O)NC3=O)C4=O)nc21 (stereo not shown) [Example 74, 3-(5-(1-ethyl-4-(pyrrolidin-1-ylmethyl)-1H-pyrrolo[2,3-b]pyridin-6-yl)-1-oxoisoindolin-2-yl) piperidine-2,6-dione]
CRBN/DDB1
  IC50: 500 to 1000 nM
IKZF2
  DC50: 1 to 10 nM
  Dmax: > 80%
IKZF1
  DC50: > 10000 nM
  Dmax: < 20%

## Cn1ccc2c(CN3CCCC3)cc(-c3ccc4c(c3F)CN(C3CCC(=O)NC3=O)C4=O)nc21 (stereo not shown) [Example 75, 3-(4-fluoro-5-(1-methyl-4-(pyrrolidin-1-ylmethyl)-1H-pyrrolo[2,3-b]pyridin-6-yl)-1-oxoisoindolin-2-yl) piperidine-2,6-dione]
CRBN/DDB1
  IC50: 100 to 500 nM
IKZF2
  DC50: < 1 nM
  Dmax: > 80%
IKZF1
  DC50: > 10000 nM
  Dmax: 20 to 40%

## O=C1CCC(N2Cc3cc(-c4cc(CN5CCCC5)c5[nH]ccc5n4)ccc3C2=O)C(=O)N1 (stereo not shown) [Example 76, 3-(1-oxo-5-(7-(pyrrolidin-1-ylmethyl)-1H-pyrrolo[3,2-b]pyridin-5-yl)isoindolin-2-yl) piperidine-2,6-dione]
CRBN/DDB1
  IC50: 1000 to 5000 nM
IKZF2
  DC50: < 1 nM
  Dmax: > 80%
IKZF1
  DC50: > 10000 nM
  Dmax: 20 to 40%

## Cn1ccc2nc(-c3ccc4c(c3)CN(C3CCC(=O)NC3=O)C4=O)cc(CN3CCCC3)c21 (stereo not shown) [Example 77, 3-(5-(1-methyl-7-(pyrrolidin-1-ylmethyl)-1H-pyrrolo[3,2-b]pyridin-5-yl)-1-oxoisoindolin-2-yl) piperidine-2,6-dione]
CRBN/DDB1
  IC50: 1000 to 5000 nM
IKZF2
  DC50: < 1 nM
  Dmax: > 80%
IKZF1
  DC50: > 10000 nM
  Dmax: 20 to 40%

## O=C1CCC(N2Cc3cc(-c4cc(CN5CCCC5)c5ccccc5n4)ccc3C2=O)C(=O)N1 (stereo not shown) [Example 78, 3-(1-oxo-5-(4-(pyrrolidin-1-ylmethyl)quinolin-2-yl)isoindolin-2-yl) piperidine-2,6-dione]
CRBN/DDB1
  IC50: 500 to 1000 nM
IKZF2
  DC50: < 1 nM
  Dmax: > 80%
IKZF1
  DC50: > 10000 nM
  Dmax: 20 to 40%

## O=C1CCC(N2Cc3cc(-c4cc(CN5CCCC5)c5c(n4)CCCC5)ccc3C2=O)C(=O)N1 (stereo not shown) [Example 79, 3-(1-oxo-5-(4-(pyrrolidin-1-ylmethyl)-5,6,7,8-tetrahydroquinolin-2-yl)isoindolin-2-yl) piperidine-2,6-dione]
CRBN/DDB1
  IC50: 100 to 500 nM
IKZF2
  DC50: < 1 nM
  Dmax: > 80%
IKZF1
  DC50: > 10000 nM
  Dmax: 20 to 40%

## O=C1CCC(N2Cc3cc(-c4cc(CN5CCCC5)c5c(n4)CCC5)ccc3C2=O)C(=O)N1 (stereo not shown) [Example 80, 3-(1-oxo-5-(4-(pyrrolidin-1-ylmethyl)-6,7-dihydro-5H-cyclopenta[b]pyridin-2-yl)isoindolin-2-yl) piperidine-2,6-dione]
CRBN/DDB1
  IC50: 100 to 500 nM
IKZF2
  DC50: < 1 nM
  Dmax: > 80%
IKZF1
  Dmax: 20 to 40%

## CC1CCN(Cc2cc(-c3ccc4c(c3)CN(C3CCC(=O)NC3=O)C4=O)nc3c2ccn3C)CC1 (stereo not shown) [Example 81, 3-(5-(1-methyl-4-((4-methylpiperidin-1-yl)methyl)-1H-pyrrolo[2,3-b]pyridin-6-yl)-1-oxoisoindolin-2-yl) piperidine-2,6-dione]
CRBN/DDB1
  IC50: 5000 to 10000 nM
IKZF2
  DC50: < 1 nM
  Dmax: > 80%
IKZF1
  DC50: 10 to 100 nM
  Dmax: 40 to 60%

## Cn1ccc2c(CN3CCCC3)cc(-c3cc4c(cc3F)C(=O)N(C3CCC(=O)NC3=O)C4)nc21 (stereo not shown) [Example 82, 3-(6-fluoro-5-(1-methyl-4-(pyrrolidin-1-ylmethyl)-1H-pyrrolo[2,3-b]pyridin-6-yl)-1-oxoisoindolin-2-yl) piperidine-2,6-dione]
CRBN/DDB1
  IC50: 5000 to 10000 nM
IKZF2
  DC50: 100 to 1000 nM
  Dmax: 20 to 40%
IKZF1
  DC50: > 10000 nM
  Dmax: < 20%
